From patent US7767803B2, “Stabilized aptamers to PSMA and their use as prostate cancer therapeutics” (Archemix Corp., priority 2002, dated 2010)
Entries after “also recorded” stand apart in the source; their conditions may differ. {C6-FAM} = fluorescein (C6-FAM) label; [invdT] = inverted (3'-3') thymidine; d = 2'-deoxy (DNA); m = 2'-O-methyl; r = 2'-OH (RNA); f = 2'-fluoro

Assays:
[1] = test system: LNCaP cells; assay: Cell proliferation assay, chemiluminescent detection of BrdU; assay type: cell-based; details: for effect on cell viability / cell killing (in words): LNCaP cells
Experimental: Effects on LNCaP cell viability were assessed in a cell proliferation assay based on chemiluminescent detection of BrdU described below (Cell Proliferation ELISA, BrdU (Roche, Indianapolis, Ind.). PC-3 cells were used as a control cell line.
Media from LNCaP (PSMA+) or PC3 (PSMA−) cells growing in 15 cm plates was aspirated off then cells were washed with 10 mL 1×PBS. Cells were trypsinized for 30 sec at 37° C. Following trypsinization, 8 mL 10% FBS media was used to quench trypsin. […] Following spin the media was aspirated off and the cell pellet was re-suspended with 10 mL complete media. The cell density was adjusted to 200,000 cells/mL. 50 μl of cells/well was added to collagen coated black 96-well plates (10,000 cells/well). […] Following overnight incubation 25 μl of media, aptamer or antibody was added to each well with the final volume in the well being 100 μl and incubated at 37° C. in 5% CO2 for designated time length. […] After 2 days 20 μl BrdU labeling reagent (100×) is mixed with 2 mL of complete media. […] After incubation, the media was removed, and the assay was completed following the manufacturer's protocol: 200 μl/well FixDenat solution was added to each well and incubated for 30 min at RT. Following removal of FixDenat solution 100 μl anti-BrdU POD Fab fragment solution (Luminol/4-iodophenol) was added to each well and incubated for 90 min at RT. After incubation anti-BrdU POD solution was removed and plates were washed with 200 μl/well of washing solution three times with 5 min RT incubations. 100 μl of substrate solution was added to each well and cells were incubated for 3 min at RT in the dark. The plates were read using a luminescence program with a 1 sec count on a Packard TopCount Microplate Scintillation and Luminescence Counter.

[2] = target: T1, ECD PSMA (Homo sapiens, UniProt Q04609); assay: Dot blot binding assay (nitrocellulose filtration)
T1 construct: N-terminal linker […]; made in house; host or cells: 293 Freestyle cells, pSecTag2B vector
Experimental: The binding reactions are then analyzed by nitrocellulose filtration using a Minifold I dot-blot, 96-well vacuum filtration manifold (Schleicher & Schuell, Keene, N.H.) (dot blot binding assay). A three-layer filtration medium is used, consisting (from top to bottom) of Protran nitrocellolose (Schleicher & Schuell), Hybond-P nylon (Amersham Biosciences, Piscataway, N.J.) and GB002 gel blot paper (Schleicher & Schuell). The nitrocellulose layer, which selectively binds protein over nucleic acid, preferentially retains the anti-PSMA aptamer in complex with a protein ligand, while non-complexed anti-PSMA aptamer passes through the nitrocellulose and adhered to the nylon (the gel blot paper is included as a supporting medium for the other filters). Following filtration, the filter layers are separated, dried and exposed on a phosphor screen (Amersham Biosciences) and quantified using a Storm 860 Phosphorimager® blot imaging system (Amersham Biosciences) and KD values are calculated by fitting the equation y=(max/(1+K/protein))+yint.
Dot Blot Binding Analysis. […]
In order to identify the core structural elements required for ARC955 binding to PSMA, the 3′-boundaries of the clone was determined through alkaline hydrolysis. […] The KD and maximum % bound for the 3 minimized constructs with the overall highest PSMA affinity, as determined by a dot blot binding assay, are listed in Table 4. […]

[3] = test system: LNCaP cells (PSMA+); assay: LNCaP FACS assay with fluorescein-labeled aptamers; assay type: cell-based; details: FACS analysis
From the text: The parent A9 aptamer sequence (SEQ ID NO 168) is predicted by the MFOLD algorithm implemented in the RNAStructure program v. 4.11 to fold into a partially mismatched hairpin that encompasses almost the entire molecule. A series of truncated constructs were designed, in which self-pairing nucleotides from the 5′- and 3′-ends were simultaneously removed, chemically synthesized using conventional solid-phase phosphoramidite-based synthesis, and tested. In the design of some of the truncated A9 aptamers, see e.g. ARC591, additional bases were added to the 3′ and 5′ ends of the truncate, where the bases added to the 5′ end were capable of forming Watson-Crick base pairs with those added to the 3′ end thereby increasing the length of stem structure. Truncated aptamers were 5′-labeled with fluorescein and tested for binding in to LNCaP cells (PSMA+) in the FACS assay described below. PC-3 cells (PSMA−) were used as a control cell line. The sequences of the truncated A9 aptamers designed are listed below in Table 6 below.
To accomplish 5′-fluorescein labeling, aptamers were synthesized with a 5′-amine and then modified post-solid phase synthesis. The required aptamer was dissolved to a concentration of ˜10-50 mg/mL in 25 mM phosphate buffer, pH 7.4. The small molecule, NHS ester of fluorescein, was dissolved to a concentration of 10 mg/mL in DMSO. 1.5 Molar equivalents were added to the aptamer and the solution vortexed for ˜15 seconds. The reaction was allowed to proceed in the dark at room temperature for 1 hour and then a 5 μL aliquot was withdrawn, diluted with water and analyzed by HPLC. Additional equivalents of the small molecule were added until the reaction was complete by HPLC. Excess small molecules were removed by gel filtration.
To prepare aptamers for the FACS assay, PSMA aptamers were serially diluted (0-1 uM) in FACS buffer (1×DPBS w/Ca^++/Mg^++ (Gibco, Carlsbad, Calif.) supplemented with 10 mg/mL salmon sperm DNA & 0.2% Na Azide), in a V-bottom 96 well plate, at the concentrations to be tested. LNCaP and PC-3 cells (ATCC, Manassas, Va.) were harvested with trypsin, and 200,000 cells/well were counted, washed once with 1×DPBS (with Ca^++ and Mg^++) and resuspended in 200 μl of FACS Buffer. The 200 μl of cells in FACS buffer were added to individual wells of a new 96 well plate, pelleted by centrifugation (1300 rpm for 5 minutes), and resuspended in 100 μl of the appropriate concentration of diluted aptamer. FACS buffer, c-PSMA antibody (3C6) (Northwest Biotherapeutics, Bothell, Wash., Cat #: 60-5002) and an irrelevant fluorescein isothiocyanate (“FITC”) mouse IgG1 isotype control antibody (BD Pharmingen, San Diego, Calif., Cat#: 554679) were used as controls. The wells of aptamer/cell mixture were incubated at room temperature for 20-30 minutes. […]

[4] = target: PSMA NAALADase activity (Homo sapiens, UniProt Q04609); assay: NAALADase inhibition assay; assay type: biochemical; details: relative to parent aptamer
Experimental: These point mutant constructs were assessed for activity in terms of inhibition of PSMA NAALADase activity. The NAALADase assay was performed in 96 well format. PSMA aptamers were serially diluted in 1× reaction buffer (40 mM Tris-HCl, pH 7.4, 0.1 mM ZnSO4, 0.1 mg/mL BSA) in a standard 96 well plate to be tested at a final concentration range from 30 pM to 1 μM. The enzyme was prepared by diluting 30 μL of 100 nM PSMA into 8 mL of reaction buffer, and kept cool on ice. The substrate was prepared by adding 19 μl of NAAG [Glutamate-3,4-^3H], 50.8 Ci/mmol, 19.7 μM (Perkin-Elmer, Wellesley, Mass., NET1082) into 2.2 mL of reaction buffer.
Following preparation of all reagents, 4 μl of each serially diluted aptamer was added to a separate 96 well plate (the reaction plate). 76 μl of diluted enzyme was added to the corresponding wells containing aptamer. 80 μl of reaction buffer was added to one column of wells to serve as a background control. The diluted substrate and reaction plate were then moved to a room at 37° C. and allowed to equilibrate for 10 minutes. […]
To separate the cleavage products, […] and Glutamate, from the substrate, an AG 1-×8, 200-400 mesh, formate resin (BioRad, Hercules, Calif., # 140-1454) was used. […] The plate was sealed and read using a Packard Topcount Microplate Scintillation Counter. […]

T1 sequence (Q04609 with tags, fused parts or gaps): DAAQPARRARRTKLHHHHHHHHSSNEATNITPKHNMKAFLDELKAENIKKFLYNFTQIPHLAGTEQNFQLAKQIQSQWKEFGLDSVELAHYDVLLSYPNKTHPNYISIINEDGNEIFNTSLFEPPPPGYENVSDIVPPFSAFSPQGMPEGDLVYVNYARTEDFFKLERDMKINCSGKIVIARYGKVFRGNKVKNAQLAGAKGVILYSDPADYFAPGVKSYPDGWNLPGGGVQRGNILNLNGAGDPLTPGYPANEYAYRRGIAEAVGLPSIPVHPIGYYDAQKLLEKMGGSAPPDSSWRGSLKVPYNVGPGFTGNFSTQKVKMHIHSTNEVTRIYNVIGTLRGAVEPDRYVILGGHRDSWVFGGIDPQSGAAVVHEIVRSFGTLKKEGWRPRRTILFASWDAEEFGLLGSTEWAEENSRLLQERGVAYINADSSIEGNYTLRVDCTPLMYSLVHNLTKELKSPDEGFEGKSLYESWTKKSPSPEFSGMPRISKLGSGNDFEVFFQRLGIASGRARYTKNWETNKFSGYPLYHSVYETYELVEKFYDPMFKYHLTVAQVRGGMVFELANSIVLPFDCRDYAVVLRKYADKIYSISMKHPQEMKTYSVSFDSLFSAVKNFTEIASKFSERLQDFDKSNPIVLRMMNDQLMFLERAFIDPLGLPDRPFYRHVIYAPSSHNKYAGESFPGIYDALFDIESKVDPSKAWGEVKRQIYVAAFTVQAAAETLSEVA
Sequence of PSMA NAALADase activity (Q04609 with tags, fused parts or gaps limits assumed): as the sequence (Q04609 with tags, fused parts or gaps) above

## O=c1c(-c2ccc(O)cc2)coc2cc(O)cc(O)c12 [Genistein, reference compound]
[1]; positive control, 25 μM dose
  cytotoxicity at 25 μM: partial inhibition
[1]; positive control, 150 μM
  cytotoxicity at 150 μM: complete cell killing

## AGAGGAGAGAACGUUCUACUAUGGGUGGCUGGGAGGGG (2'-O-methyl at ACU, RNA at G, backbone not given here) [ARC1091, rGmH minimer of ARC955]
[2]
  PSMA binding (in words): maintains the full binding capacity

## C6 FAM-GGAGGACCGAAAAAGACCUGACUUCUAUACUAAGUCUACGUUCCUCC-3T (GGAGGACCGAAAAAGACCUGACUUCUAUACUAAGUCUACGUUCCUCCT; 5' FAM label and 3' inverted dT, sugar chemistry not clearly assigned, further chemistry not given here) [ARC710, fluorescently labeled A9 minimer]
[3]
  competition with fluorescently labeled anti-PSMA antibody for binding to the surface of LNCaP cells: effectively competes

## CUACUACACAUGGGUCGGGUGAGUGGCAAAGGAAUAGUAG (2'-O-methyl at ACU, RNA at G, backbone not given here) [ARC725]
[2]
  PSMA binding (in words): no intrinsic PSMA binding; also recorded: not to exhibit PSMA binding

## UAAUACGACUCACUAUAGGGAGAGGAGAGAACGUUCUACUAUGGGUGGCUGGGAGGGGAAGAGGGAGUAGGUCGAUCGAUCGAUCAUCGAUG [ARC955]
[1]
  effect on cell viability / cell killing (in words): no intrinsic effect on cell viability at any concentration

## c6 fam-mCmGmGmAfCfCmGAAAAmAmGmAmCfCfUGAfCfUfUfCfUAfUAfCfUAAmGmUmCmUAfCmGfUmUmCmCmG-3T (CGGACCGAAAAAGACCUGACUUCUAUACUAAGUCUACGUUCCG; sugars from the 5' end mmmmffmrrrrmmmmffrrfffffrfrffrrmmmmrfmfmmmm, [invdT] at 3' end, 5' {C6-FAM}, backbone not given here) [ARC711, fluorescently labeled A9 minimer]
[3]
  competition with fluorescently labeled anti-PSMA antibody for binding to the surface of LNCaP cells: effectively competes

## mCmGmGmACmGAAAAmAmGmAmCfCfUGAfCfUfUfCfUAfUAfCfUAAmGmUmCmUAfCmGfUmUmCmCmG-3T [ARC942]
[1]
  effect on cell viability / cell killing (in words): no intrinsic effect on cell viability at any concentration

## mCmGmGmAfCfCmGdAdAfCmAmAmGmGmCfCfU-s-dGmAfCfUfUfCfUmAfUmAfCfUdAmAmGmCmCmUmAfCmGfUmUmCmCmG-3T (CGGACCGAACAAGGCCUGACUUCUAUACUAAGCCUACGUUCCG; sugars from the 5' end mmmmffmddfmmmmmffdmfffffmfmffdmmmmmmfmfmmmm, [invdT] at 3' end, backbone not given here; internal -s- element between two units) [ARC1725]
[4]
  NAALADase inhibition activity (in words): retained full activity
